The results in this text go back to patent US20250154144A1 (CHILDREN'S HOSPITAL MEDICAL CENTER, priority 2021, published 2025).

One test has as its target T1, FLT3 (Homo sapiens, UniProt P36888).
T1 sequence (P36888 610-943 limits assumed): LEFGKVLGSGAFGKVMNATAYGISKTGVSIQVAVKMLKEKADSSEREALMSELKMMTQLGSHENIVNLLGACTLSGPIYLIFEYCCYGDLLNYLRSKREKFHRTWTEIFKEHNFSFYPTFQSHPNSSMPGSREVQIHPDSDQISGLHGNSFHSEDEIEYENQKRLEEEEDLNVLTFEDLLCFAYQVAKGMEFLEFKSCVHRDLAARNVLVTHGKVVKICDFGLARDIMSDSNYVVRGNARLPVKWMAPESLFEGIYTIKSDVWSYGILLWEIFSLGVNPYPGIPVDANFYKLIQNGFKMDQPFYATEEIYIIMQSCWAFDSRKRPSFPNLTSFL
Description: RBC HotSpot Kinase Assay, FLT3.

Another test deals with IRAK1 (Homo sapiens, UniProt P51617). Description: RBC HotSpot Kinase Assay, IRAK1.
The next test has as its target T2, IRAK4 (Homo sapiens, UniProt Q9NWZ3).
T2 sequence (Q9NWZ3 1-460): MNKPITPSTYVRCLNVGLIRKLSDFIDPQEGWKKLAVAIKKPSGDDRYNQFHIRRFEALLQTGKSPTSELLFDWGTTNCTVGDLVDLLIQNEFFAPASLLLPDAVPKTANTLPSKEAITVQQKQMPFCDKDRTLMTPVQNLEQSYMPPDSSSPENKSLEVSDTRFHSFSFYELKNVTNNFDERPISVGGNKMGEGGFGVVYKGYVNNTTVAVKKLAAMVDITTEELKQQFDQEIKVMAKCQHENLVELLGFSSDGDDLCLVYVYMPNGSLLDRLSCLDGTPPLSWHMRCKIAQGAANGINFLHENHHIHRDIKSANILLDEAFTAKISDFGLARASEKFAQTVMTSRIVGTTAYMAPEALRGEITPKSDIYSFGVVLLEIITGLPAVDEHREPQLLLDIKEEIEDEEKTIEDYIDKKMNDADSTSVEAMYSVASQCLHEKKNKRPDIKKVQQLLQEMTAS
Description: RBC HotSpot Kinase Assay, IRAK4.

The next test has as its system MOLM14(D835Y) cells. The class given is cell-based. Conditions: MOLM14(D835Y), 10 × 10.
A further test relates to THP1 cells. Description: Combination drug screening, Cell Titer Glo, 10 × 10 matrix, THP1 cells. The class given is cell-based.
The mark [1] stands for this setting: starting conc. 2000 nM, with (+)-BAY-1251152 starting conc. 1000 nM.
The mark [2] stands for this setting: starting conc. 2000 nM, with Azacitidine (5-Azacytidine) starting conc. 20000 nM.
The mark [3] stands for this setting: starting conc. 2000 nM, with Palbociclib starting conc. 10000 nM.
Setting [4] is: starting conc. 2000 nM, with Prednisolone starting conc. 10000 nM.
Where [5] appears, read: starting conc. 2000 nM, with TNO-155 starting conc. 10000 nM.
Setting [6] is: starting conc. 2000 nM, with Venetoclax (ABT-199) starting conc. 2000 nM.
Where [7] appears, read: starting conc. 2000 nM, with Venetoclax (ABT-199) starting conc. 20000 nM.
[8] abbreviates: starting conc. 20000 nM, with (+)-BAY-1251152 starting conc. 1000 nM.
Where [9] appears, read: starting conc. 20000 nM, with Azacitidine (5-Azacytidine) starting conc. 20000 nM.
[10] abbreviates: starting conc. 20000 nM, with Palbociclib starting conc. 10000 nM.
[11] abbreviates: starting conc. 20000 nM, with Prednisolone starting conc. 10000 nM.
Where [12] appears, read: starting conc. 20000 nM, with TNO-155 starting conc. 10000 nM.
[13] abbreviates: starting conc. 20000 nM, with Venetoclax (ABT-199) starting conc. 2000 nM.
[14] abbreviates: starting conc. 20000 nM, with Venetoclax (ABT-199) starting conc. 20000 nM.

In general, IC50 refers to the concentration that inhibits the measured activity by half.

Where two headings read alike, the source gives them in different places.

Chain of IRAK1 (P51617 whole entry): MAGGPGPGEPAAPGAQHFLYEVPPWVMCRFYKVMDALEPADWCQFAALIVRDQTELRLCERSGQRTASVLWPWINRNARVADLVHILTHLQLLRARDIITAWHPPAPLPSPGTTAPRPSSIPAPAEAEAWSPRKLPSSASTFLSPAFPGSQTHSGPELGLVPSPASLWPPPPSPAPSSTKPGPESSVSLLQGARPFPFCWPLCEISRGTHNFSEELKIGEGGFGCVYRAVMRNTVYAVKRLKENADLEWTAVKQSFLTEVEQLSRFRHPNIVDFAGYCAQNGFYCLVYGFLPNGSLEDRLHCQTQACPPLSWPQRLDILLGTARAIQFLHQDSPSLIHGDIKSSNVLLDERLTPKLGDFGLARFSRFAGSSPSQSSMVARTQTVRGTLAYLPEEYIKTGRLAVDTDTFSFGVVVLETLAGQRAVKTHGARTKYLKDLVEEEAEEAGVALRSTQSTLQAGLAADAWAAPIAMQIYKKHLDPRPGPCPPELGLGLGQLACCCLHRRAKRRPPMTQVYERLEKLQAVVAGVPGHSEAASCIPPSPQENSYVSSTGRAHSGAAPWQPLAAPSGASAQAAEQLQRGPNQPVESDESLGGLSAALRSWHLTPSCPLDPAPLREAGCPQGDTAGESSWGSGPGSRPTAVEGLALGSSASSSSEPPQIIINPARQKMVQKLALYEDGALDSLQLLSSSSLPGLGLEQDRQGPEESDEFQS

As for `COc1cc2ncc(-c3ccnc(N[C@H]4CNC[C@@H]4F)n3)n2cc1C(C)(O)C(F)(F)F` (single isomer, unassigned) [Compound 56], the IC50 at FLT3 (read-out: FLT3 IC50), on IRAK1 (read-out: IRAK1 IC50) and at IRAK4 (read-out: IRAK4 IC50) was under 0.5 nM throughout.

Regarding `COc1cc2ncc(-c3cncc(N[C@H]4CNCC[C@@H]4F)n3)n2cc1C(C)(O)C(F)(F)F` (single isomer, unassigned) [Compound 65], the IC50 against FLT3 (FLT3 IC50), against IRAK1 (IRAK1 IC50) and on IRAK4 (IRAK4 IC50) was under 0.5 nM throughout.

Take `COc1cc2ncc(-c3cncc(N[C@H]4CNC[C@@H]4F)n3)n2nc1C(C)(O)C(F)(F)F` (single isomer, unassigned) [Compound 83]: the values for the 50% inhibitory concentration (IC50) against FLT3 (FLT3 IC50), on IRAK1 (IRAK1 IC50) and against IRAK4 (IRAK4 IC50) were 1 nM, 4690 nM and 544 nM, respectively.

Take `COc1cc2ncc(-c3ccnc(N[C@H]4CNCC[C@@H]4F)n3)n2cc1C(C)(O)C(F)(F)F` (stereo partly drawn) [Compound 60]: the IC50 at FLT3 (FLT3 IC50), against IRAK1 (IRAK1 IC50) and on IRAK4 (IRAK4 IC50) was under 0.5 nM throughout.

On to `COc1cc2ncc(-c3cncc(N[C@H]4CNCC[C@@H]4F)n3)n2nc1C(C)(O)C(F)(F)F` (single isomer, unassigned) [Compound 80], for which the results for the 50% inhibitory concentration (IC50) on FLT3 (FLT3 IC50), against IRAK1 (IRAK1 IC50) and against IRAK4 (IRAK4 IC50) were under 0.5 nM, 1120 nM and 406 nM, respectively.

On to `CC(C)(O)c1ccc2ncc(-c3ccnc(N[C@H]4CNC[C@@H]4F)n3)n2c1` [Compound 40, 2-(3-(2-(((3S,4S)-4-fluoropyrrolidin-3-yl)amino)pyrimidin-4-yl)imidazo[1,2-a]pyridin-6-yl)propan-2-ol], for which the IC50 was under 0.5 nM on FLT3 (FLT3 IC50), 79 nM against IRAK1 (IRAK1 IC50) and 1 nM on IRAK4 (IRAK4 IC50).

In the case of `COc1cc2ncc(-c3cncc(N[C@@H]4CCCNC4)n3)n2cc1C(C)(O)C(F)(F)F` (single isomer, unassigned) [Compound 64], the IC50 was under 0.5 nM on FLT3 (read-out: FLT3 IC50), 1 nM against IRAK1 (IRAK1 IC50) and under 0.5 nM against IRAK4 (IRAK4 IC50).

For `COc1cc2ncc(-c3cncc(N[C@H]4CNC[C@@H]4F)n3)n2cc1C(C)(O)C(F)(F)F` (single isomer, unassigned) [Compound 61], the IC50 against FLT3 (FLT3 IC50), against IRAK1 (IRAK1 IC50) and on IRAK4 (IRAK4 IC50) was under 0.5 nM throughout.

Regarding `COc1cc2ncc(-c3cncc(N[C@@H]4CCCNC4)n3)n2cc1C(C)(O)C(F)(F)F` (single isomer, unassigned) [Compound 63], the IC50 was under 0.5 nM against FLT3 (FLT3 IC50), 2 nM at IRAK1 (IRAK1 IC50) and 0.7 nM against IRAK4 (IRAK4 IC50).

On to `CC(O)(c1cn2c(-c3ccnc(N[C@H]4CNCC[C@@H]4F)n3)cnc2cn1)C(F)(F)F` (single isomer, unassigned) [Compound 58], for which the IC50 was under 0.5 nM at FLT3 (FLT3 IC50), 0.6 nM on IRAK1 (IRAK1 IC50) and under 0.5 nM on IRAK4 (IRAK4 IC50).

Consider `COc1cc2ncc(-c3ccnc(N[C@@H]4CCCNC4)n3)n2cc1C(C)(O)C(F)(F)F` (single isomer, unassigned) [Compound 57], for which the IC50 against FLT3 (FLT3 IC50), against IRAK1 (IRAK1 IC50) and against IRAK4 (IRAK4 IC50) was under 0.5 nM throughout.

As to `CC(C)(O)c1ccc2ncc(-c3cncc(N[C@H]4CNC[C@@H]4F)n3)n2c1` [Compound 16, 2-(3-(6-(((3S,4S)-4-fluoropyrrolidin-3-yl)amino)pyrazin-2-yl)imidazo[1,2-a]pyridin-6-yl)propan-2-ol], the IC50 against FLT3 (FLT3 IC50) was determined as 5 nM; at IRAK1 (IRAK1 IC50), 237 nM; against IRAK4 (IRAK4 IC50) it was 13 nM.

As to `COc1cc2ncc(-c3cncc(N[C@H]4CNC[C@@H]4F)n3)n2cc1C(C)(O)C(F)(F)F` (single isomer, unassigned) [Compound 62], the IC50 at FLT3 (read-out: FLT3 IC50) was under 0.5 nM; against IRAK1 (IRAK1 IC50), 2 nM; on IRAK4 (read-out: IRAK4 IC50) it was under 0.5 nM.

Turning to `COc1cc2ncc(-c3cncc(N[C@H]4CNCC[C@@H]4F)n3)n2nc1C(C)(O)C(F)(F)F` (single isomer, unassigned) [Compound 79], the IC50 at FLT3 (FLT3 IC50) stood at 6 nM; against IRAK1 (IRAK1 IC50), 1020 nM; on IRAK4 (IRAK4 IC50) it was 367 nM.

For `Cc1cc(-c2nc(C(=O)Nc3cc4oc(N5CCOCC5)nc4nc3N3CC[C@@H](O)C3)co2)ccn1` [CA-4948, reference compound], the “Excess HSA Score” value in the test on MOLM14(D835Y) cells (title compound starting conc. 2000 nM + (+)-BAY-1251152 starting conc. 1000 nM) is recorded as −153.6; in the test on MOLM14(D835Y) cells (title compound starting conc. 2000 nM + Azacitidine (5-Azacytidine) starting conc. 20000 nM), −672.6; with MOLM14(D835Y) cells (title compound starting conc. 2000 nM + Palbociclib starting conc. 10000 nM), −930; with MOLM14(D835Y) cells (title compound starting conc. 2000 nM + Prednisolone starting conc. 10000 nM), −435.8; with MOLM14(D835Y) cells (title compound starting conc. 2000 nM + TNO-155 starting conc. 10000 nM), −1272; in the test with MOLM14(D835Y) cells (title compound starting conc. 2000 nM + Venetoclax (ABT-199) starting conc. 2000 nM), −280.9. Further, the “Excess HSA Score” value is on record as −1172 with MOLM14(D835Y) cells (title compound starting conc. 2000 nM + Venetoclax (ABT-199) starting conc. 20000 nM); −195.3 in the test on MOLM14(D835Y) cells (title compound starting conc. 20000 nM + (+)-BAY-1251152 starting conc. 1000 nM); −612.1 with MOLM14(D835Y) cells (title compound starting conc. 20000 nM + Azacitidine (5-Azacytidine) starting conc. 20000 nM); −90.76 in the test on MOLM14(D835Y) cells (title compound starting conc. 20000 nM + Palbociclib starting conc. 10000 nM); −397.1 in the test with MOLM14(D835Y) cells (title compound starting conc. 20000 nM + Prednisolone starting conc. 10000 nM); −1174 with MOLM14(D835Y) cells (title compound starting conc. 20000 nM + TNO-155 starting conc. 10000 nM). Besides, the “Excess HSA Score” value with MOLM14(D835Y) cells (title compound starting conc. 20000 nM + Venetoclax (ABT-199) starting conc. 2000 nM) is given as −1088; in the test on MOLM14(D835Y) cells (title compound starting conc. 20000 nM + Venetoclax (ABT-199) starting conc. 20000 nM) it was −1078.145; in the test with THP1 cells (setting [1]) it was 43.42; in the test with THP1 cells (setting [2]) it was −147.4; with THP1 cells (setting [3]), −41.44; with THP1 cells (setting [4]) it was 28.64. Also, the “Excess HSA Score” value in the test with THP1 cells (setting [5]) is listed as 22.1261; in the test with THP1 cells (setting [6]), 806.5237; with THP1 cells (setting [7]) it was −48.9669; with THP1 cells (setting [8]), 230.5; in the test with THP1 cells (setting [9]), −562.3; in the test with THP1 cells (setting [10]) it was 579.4. In addition, the “Excess HSA Score” value in the test with THP1 cells (setting [11]) is reported as −33.05; with THP1 cells (setting [12]) it was −0.9078; in the test with THP1 cells (setting [13]) it was −352.8; with THP1 cells (setting [14]), −979.3. For the same compound, the Comments result in the test with THP1 cells (setting [1]) was “Antagonistic at both”; in the test with THP1 cells (setting [2]) it was “Synergistic”; in the test on THP1 cells (setting [3]), “Synergistic”; with THP1 cells (setting [4]) it was “Antagonistic”; in the test on THP1 cells (setting [5]), “Antagonistic”; in the test on THP1 cells (setting [6]), “Antagonistic”. Further, the Comments result in the test on THP1 cells (setting [7]) was “Synergistic; Optimal”; with THP1 cells (setting [8]) it was “Antagonistic at both”; in the test with THP1 cells (setting [9]), “Synergistic”; in the test on THP1 cells (setting [10]) it was “Antagonistic”; in the test with THP1 cells (setting [11]) it was “Synergistic”; in the test on THP1 cells (setting [12]) it was “Additive”. Further, the Comments entry in the test on THP1 cells (setting [13]) and in the test with THP1 cells (setting [14]) was “Synergistic; Optimal” each time.
